What was measured:
[1] = test system: MDA-MB-468 breast cancer cell line; experiment: 72 hours CellTiter-Glo proliferation assay, MDA-MB-468; format: cell-based; conditions: single agent, read-out: Abs IC50
Experimental: (§1) Compounds were dissolved in 100% DMSO (Sigma, Catalog # D2438-50 ML) at a stock concentration of 10 mM and stored at −20° C. until use. Compounds were arrayed in 2 ml deep 96-well plates (Greiner bio-one, catalog number 780271) serially diluted 3-fold. Compound 1 was used over a concentration range of 0.0-10.0 μM. Paclitaxel was used over a concentration range of 0.0-1.0 μM in breast cancer cells and 0.0-2.0 μM range in lung cancer cells.
(§2) All cell lines were purchased from the American Type Culture Collection and cultured according to vendor recommendations. […] All cell lines were determined to be free of mycoplasma contamination by a PCR detection assay performed at Idexx Radil (Columbia, Mo., USA) and authenticated by SNP analysis. […] Cells were expanded to T-75 flasks and assessed for viability using a Beckman-Coulter ViCell counter prior to plating. […]
(§3) Cell proliferation was measured in 72 hours CellTiter-Glo™ (CTG) assays and all results shown are the result of at least triplicate measurements. […] After 72 hours of compound treatment the effects of compounds on cell proliferation was determined using the CellTiter-Glo™ Luminescent Cell Viability Assay (Promega, Catalog # G7573). This is a homogeneous method to determine the number of viable cells in culture based on quantitation of the ATP present, which signals the presence of metabolically active cells. […]

[2] = test system: HCC70 breast cancer cell line; experiment: 72 hours CellTiter-Glo proliferation assay, HCC70; format: cell-based; conditions: single agent, read-out: Abs IC50
Experimental: as §1, §2, §3

MDA-MB-231 xenografts = experiment: MDA-MB-231 breast xenograft model, antitumor efficacy; format: in vivo, female nude rats; conditions: Compound 1 50 mg/kg QW×7 iv infusion, liposomal formulation
[3] = test system: MDA-MB-231 breast cancer cell line; experiment: 72 hours CellTiter-Glo proliferation assay, MDA-MB-231; format: cell-based; conditions: single agent, read-out: Abs IC50
Experimental: as §1, §2, §3

[4] = test system: HCC1143 breast cancer cell line; experiment: 72 hours CellTiter-Glo proliferation assay, HCC1143; format: cell-based; conditions: single agent, read-out: Abs IC50
Experimental: as §1, §2, §3

[5] = test system: SK-BR-3 breast cancer cell line; experiment: 72 hours CellTiter-Glo proliferation assay, SK-BR-3; format: cell-based; conditions: single agent, read-out: Abs IC50
Experimental: as §1, §2, §3

[6] = test system: A549 lung cancer cell line; experiment: 72 hours CellTiter-Glo proliferation assay, A549; format: cell-based; conditions: single agent, read-out: Abs IC50
Experimental: as §1, §2, §3

[7] = test system: HCC38 breast cancer cell line; experiment: 72 hours CellTiter-Glo proliferation assay, HCC38; format: cell-based; conditions: single agent, read-out: Abs IC50
Experimental: as §1, §2, §3

[8] = test system: HCC1500 breast cancer cell line; experiment: 72 hours CellTiter-Glo proliferation assay, HCC1500; format: cell-based; conditions: single agent, read-out: Abs IC50
Experimental: as §1, §2, §3

[9] = test system: TNBC PDX model OD-BRE-00589; experiment: TNBC PDX model OD-BRE-00589, antitumor activity; format: in vivo, female SCID mice; conditions: Compound 1 70 mg/kg iv once, liposomal formulation
Experimental: Docetaxel was formulated in 5% ethanol, 5% PS80 and 90% Glucose at 0.67 mg/ml to administer 10 mg/kg. […] OD-BRE-00589 is a triple negative breast cancer PDX, obtained from the IMODI consortium. […] It was grafted on SCID mice as fragments of 27 mm^3 volume. […] The administrations were performed once in the caudal vein.

[10] = test system: MCF7 breast cancer cell line; experiment: 72 hours CellTiter-Glo proliferation assay, MCF7; format: cell-based; conditions: single agent, read-out: Abs IC50
Experimental: as §1, §2, §3

TNBC 110T PDX model = experiment: TNBC 110T PDX model, tumor growth and survival (Compound 1, docetaxel); format: in vivo, NOD-SCID-IL2Rγc−/− female mice; conditions: Compound 1 15 mg/kg i.v. twice weekly for six weeks
Experimental: A cohort of 40 female NSG mice was seeded with thawed single cell suspensions of early passage human breast tumors (TNBC PDX110). Briefly, 100,000 cells were resuspended in 10 μl of transplantation buffer (50% fetal calf serum, 10% of a 0.04% trypan blue solution and 40% PBS) and growth-factor-reduced Matrigel [BD] at a ratio of 3:1, and injected into the cleared mammary fat pads of 3- or 4-week-old NOD-SCID-IL2Rγc^−/− female mice. […] Once tumors reached a volume of 60-110 mm^3, mice were randomized into treatment arms and treatment commenced. Docetaxel or its vehicle was prepared by dissolving stock solution (20 mg/ml) with PBS and injected i.p. every 21 days for two treatment cycles. The duration of therapy is indicated by the bar. […] Compound 1 (15 mg/kg) or its vehicle was injected i.v. twice weekly for six weeks. Mice were sacrificed at the first measurement where tumor volume exceeded 600 mm^3, or if their health deteriorated for reasons other than disease progression or drug toxicity (censored event). n=9-10 mice per treatment group.

[11] = test system: Hs 578T breast cancer cell line; experiment: 72 hours CellTiter-Glo proliferation assay, Hs 578T; format: cell-based; conditions: single agent, read-out: Abs IC50
Experimental: as §1, §2, §3

[12] = test system: BT-549 breast cancer cell line; experiment: 72 hours CellTiter-Glo proliferation assay, BT-549; format: cell-based; conditions: single agent, read-out: Abs IC50
Experimental: as §1, §2, §3

[13] = test system: MDA-MB-436 breast cancer cell line; experiment: 72 hours CellTiter-Glo proliferation assay, MDA-MB-436; format: cell-based; conditions: single agent, read-out: Abs IC50
Experimental: as §1, §2, §3

[14] = test system: MDA-MB-157 breast cancer cell line; experiment: 72 hours CellTiter-Glo proliferation assay, MDA-MB-157; format: cell-based; conditions: single agent, read-out: Abs IC50
Experimental: as §1, §2, §3

[15] = test system: BT-474 breast cancer cell line; experiment: 72 hours CellTiter-Glo proliferation assay, BT-474; format: cell-based; conditions: single agent, read-out: Abs IC50
Experimental: as §1, §2, §3

[16] = test system: HCC1395 breast cancer cell line; experiment: 72 hours CellTiter-Glo proliferation assay, HCC1395; format: cell-based; conditions: single agent, read-out: Abs IC50
Experimental: as §1, §2, §3

[17] = test system: MDA-MB-453 breast cancer cell line; experiment: 72 hours CellTiter-Glo proliferation assay, MDA-MB-453; format: cell-based; conditions: single agent, read-out: Abs IC50
Experimental: as §1, §2, §3

`COc1ccccc1-c1nccc(COc2ccccc2C[C@@H](Oc2ncnc3sc(-c4ccc(F)cc4)c(-c4ccc(OCCN5CCN(C)CC5)c(Cl)c4C)c23)C(=O)O)n1` [Compound 1, (2R)-2-{[(5Sa)-5-{3-chloro-2-methyl-4-[2-(4-methylpiperazin-1-yl)ethoxy]phenyl}-6-(4-fluorophenyl)thieno[2,3-d]pyrimidin-4-yl]oxy}-3-(2-{[2-(2-methoxyphenyl)pyrimidin-4-yl]methoxy}phenyl)propanoic acid] was tested. Which IC50 [1] did it give?
Its IC50 is 9.92 µM.

And the IC50 [2]?
Its IC50 is 0.704 µM.

What about the efficacy (MDA-MB-231 xenografts) of the same compound?
Its efficacy is “no efficacy”.

What about the IC50 [3] of the same compound?
Its IC50 is over 10 µM.

What about the IC50 [4] of the same compound?
Its IC50 is over 10 µM.

What about the IC50 [5] of the same compound?
Its IC50 is 0.301 µM.

What about the IC50 [6] of the same compound?
The IC50 was over 10 µM.

And the IC50 [7]?
The IC50 was 3.39 µM.

What about the IC50 [8] of the same compound?
The IC50 was 0.258 µM.

And the “inhibition of tumor growth, single agent” value [9]?
The value was “insufficient in inhibiting tumor growth”.

And the IC50 [10]?
Its IC50 is 1.29 µM.

And the “inhibition of tumor growth, single agent” value (TNBC 110T PDX model)?
Its value is “insufficient in inhibiting tumor growth”.

And the IC50 [11]?
Its IC50 is 0.519 µM.

And the IC50 [12]?
The IC50 was over 10 µM.

What about the IC50 [13] of the same compound?
Its IC50 is over 10 µM.

And the IC50 [14]?
The IC50 was over 10 µM.

And the IC50 [15]?
The IC50 was 1.26 µM.

What about the IC50 [16] of the same compound?
The IC50 was 9.92 µM.

And the IC50 [17]?
The IC50 was over 10 µM.

— US10765680B2, “Combination of a MCL-1 inhibitor and a taxane compound, uses and pharmaceutical compositions thereof” (priority 2017, dated 2020)
